Measured values published in patent publication US3965139A, “2-Chloro-N-(cyanomethyl)acetanilides” (Diamond Shamrock Corporation, priority 1974, dated 1976).
Each block holds one compound with its values, some of them ahead of it.

How the values were obtained:
Corn [1] = assay: Preemergence test in loam-type heavier soil, crop; type: in vivo; conditions: for % Control of Plant Growth, Corn: about three weeks after planting, loam-type heavier soil
Corn [2] = assay: Field Preemergence Test, phytotoxic effects on crop; type: in vivo, sweet corn; conditions: light sandy soil; for % Crop Kill, Corn: 3-4 weeks after planting
Excerpt: (§1) Test plots of fertilized, light sandy soil containing 0.7% organic matter are sprayed uniformly with aqueous suspensions prepared from an emulsifiable concentrate containing 12%, by weight, of 2-chloro-N-cyanomethyl-2',6'-diethylacetanilide (the product of Example 1) diluted to provide dosage rates of the test compound corresponding to 2, 1, 0.5, and 0.25 pound per acre (lb/A). The plots are then sown with seeds of the following crop plants: sweet corn, cotton (Coker 413), and soybeans, var. Davis. Seeds of the following weed plants are planted: redroot pigweed, prickly sida, and common lambsquarter (broadleaf species); goosegrass and giant foxtail (grass species).
(§2) Three to four weeks after planting, percent control (plant kill) of the test plants is estimated, from a rating of 0 which denotes no injury to the plant up to 100 which denotes complete destruction. The % weed control exerted by 2-chloro-N-cyanomethyl-2',6'-diethylacetanilide is as follows:
(§3) Phytotoxic effects observed on the crop species is estimated with results as follows: […]

Yellow Foxtail = assay: Preemergence test in loam-type heavier soil, weed; type: in vivo; conditions: about three weeks after planting
Excerpt: (§4) This example illustrates the performance of 2-chloro-N-cyanomethyl-2',6'-diethylacetanilide in a different type soil than employed in the previous example. For this test, test plots of a loam-type, heavier soil containing 5.5% organic matter are sprayed uniformly with formulations of the test compound providing dosage rates of 4, 2, and 1 pound per acre (lb/A). The plots are then sown to cotton and soybeans and with seeds of the broadleaf, redroot pigweed, and the grasses, Johnson grass and yellow foxtail, as indicator weed plants.
(§5) Approximately three weeks after planting, the test plots are examined and percent control of plant growth is rated from 0% to 100% as previously described.

grass species [3] = assay: Greenhouse Preemergence Herbicide Test, grass species; type: in vivo; conditions: two weeks after treatment
Description: To illustrate the preemergence herbicidal efficiency of the N-(cyanomethyl)acetanilides of this invention, test formulations are prepared of representative compounds by mixing 20 ml of an acetone solution containing 0.125 g of the test compound with 20 ml of water containing 0.01 g of Triton X-155 surfactant. The resultant formulations contain 3125 ppm of test compound, 50% by volume of acetone and 0.025% by weight of surfactant. Appropriate lower concentrations are obtained by diluting this formulation with surfactant-acetone solution so that the concentration of adjuvants is maintained at the original levels.
Seeds of three broadleaf and three grass species are planted in soil contained in 10 × 8 × 3 inch aluminum pans filled with 1.5 inches of composted soil. The broadleaf species are pigweed (Amaranthus retroflexus), a velvetleaf (Abutilon theophrasti), and morningglory (Ipomea coccinea); the grasses are red millet (Panicum milliacem), greenfoxtail (Setaria viridis) and Japanese millet (Echinochloa frumentacea).
The pans are then sprayed so that the soil surface is uniformly covered with dilutions of the stock formulation providing dosage rates of the test compounds corresponding to 8, 4, 2, 1, 0.5, and 0.25 lb/A. Two weeks after treatment, percent control (plant kill) at each dosage rate is estimated. The lowest concentration of each compound (lb/A) found to provide 50% or greater control of the grass weeds is as follows: […]

broadleaf species [4] = assay: Preemergence test in loam-type heavier soil, broadleaf species; type: in vivo, redroot pigweed; conditions: 1-2 lb/A; heavy soil
Excerpt: as §4, §5

Cotton = assay: Field Preemergence Test, phytotoxic effects on crop; type: in vivo, cotton (Coker 413); conditions: light sandy soil; for % Crop Kill, Cotton: 3-4 weeks after planting
Excerpt: as §1, §2, §3

Pigweed = assay: Preemergence test in loam-type heavier soil, weed; type: in vivo, redroot pigweed; conditions: about three weeks after planting
Excerpt: as §4, §5

Soybeans [5] = assay: Field Preemergence Test, phytotoxic effects on crop; type: in vivo, var. Davis; conditions: light sandy soil; for % Crop Kill, Soybeans: 3-4 weeks after planting
Excerpt: as §1, §2, §3

Lambsquarter = assay: Field Preemergence Test, light sandy soil; type: in vivo, common lambsquarter; conditions: 3-4 weeks after planting
Excerpt: as §1
(§6) Three to four weeks after planting, percent control (plant kill) of the test plants is estimated, from a rating of 0 which denotes no injury to the plant up to 100 which denotes complete destruction. The % weed control exerted by 2-chloro-N-cyanomethyl-2',6'-diethylacetanilide is as follows: […]

grass species [6] = assay: Preemergence test in loam-type heavier soil, grasses overall; type: in vivo, Johnson grass and yellow foxtail; conditions: 1-2 lb/A; heavy soil
Excerpt: as §4, §5

Johnsongrass = assay: Preemergence test in loam-type heavier soil, weed; type: in vivo, Johnson grass; conditions: about three weeks after planting
Excerpt: as §4, §5

Soybeans [7] = assay: Preemergence test in loam-type heavier soil, crop; type: in vivo; conditions: for % Control of Plant Growth, Soybeans: about three weeks after planting, loam-type heavier soil
Excerpt: as §4, §5

broadleaf species [8] = assay: Field Preemergence Test, light sandy soil, broadleaf species overall; type: in vivo, redroot pigweed, prickly sida, common lambsquarter
Excerpt: as §1, §6

Prickly Sida = assay: Field Preemergence Test, light sandy soil; type: in vivo; conditions: 3-4 weeks after planting
Excerpt: as §1, §6

Redroot Pigweed = assay: Field Preemergence Test, light sandy soil; type: in vivo; conditions: 3-4 weeks after planting
Excerpt: as §1, §6

Giant Foxtail = assay: Field Preemergence Test, light sandy soil; type: in vivo; conditions: 3-4 weeks after planting
Excerpt: as §1, §6

Goosegrass = assay: Field Preemergence Test, light sandy soil; type: in vivo; conditions: 3-4 weeks after planting
Excerpt: as §1, §6

grassy-type weeds = assay: Field Preemergence Test, light sandy soil, grasses overall; type: in vivo, goosegrass and giant foxtail
Excerpt: as §1, §6

% Control of Plant Growth, Corn (Corn [1]; 1 lb/A): 0%
% Control of Plant Growth, Corn (Corn [1]; 2 lb/A): 0%
% Control of Plant Growth, Corn (Corn [1]; 4 lb/A): 10%
% Control of Plant Growth, Soybeans (Soybeans [7]; 1 lb/A): 0%
% Control of Plant Growth, Soybeans (Soybeans [7]; 2 lb/A): 0%
% Control of Plant Growth, Soybeans (Soybeans [7]; 4 lb/A): 5%
Structure (SMILES): CCc1cccc(CC)c1N(CC#N)C(=O)CCl [Example 1, 2-chloro-N-cyanomethyl-2',6'-diethylacetanilide]
injury to corn stand (Corn [1]; 1-2 lb/A, heavy soil): noninjurious
% Crop Kill, Corn (Corn [2]; 1 lb/A): 0%
% Crop Kill, Corn (Corn [2]; 2 lb/A): 0%
tolerance of corn (Corn [2]; 2 lb/A): tolerant
% Control of Plant Growth, Yellow Foxtail (Yellow Foxtail; 1 lb/A): 90%
% Control of Plant Growth, Yellow Foxtail (Yellow Foxtail; 2 lb/A): 95%
% Control of Plant Growth, Yellow Foxtail (Yellow Foxtail; 4 lb/A): 95%
Minimum Dosage Providing at Least 50% Preemergence Control of Grass Species (grass species [3]): 0.50 lb/A
activity for controlling the broadleaf species (broadleaf species [4]): no activity
% Crop Kill, Cotton (Cotton; 1 lb/A): 0%
% Crop Kill, Cotton (Cotton; 2 lb/A): 3%
phytotoxicity effects on cotton (Cotton; 2 lb/A): minimal phytotoxicity effects
% Control of Plant Growth, Pigweed (Pigweed; 1 lb/A): 0%
% Control of Plant Growth, Pigweed (Pigweed; 2 lb/A): 0%
% Control of Plant Growth, Pigweed (Pigweed; 4 lb/A): 40%
% Crop Kill, Soybeans (Soybeans [5]; 1 lb/A): 0%
% Crop Kill, Soybeans (Soybeans [5]; 2 lb/A): 0%
tolerance of soybeans (Soybeans [5]; 2 lb/A): tolerant
% Weed Control, Lambsquarter (Lambsquarter; 0.25 lb/A): 0%
% Weed Control, Lambsquarter (Lambsquarter; 0.5 lb/A): 20%
% Weed Control, Lambsquarter (Lambsquarter; 1 lb/A): 60%
% Weed Control, Lambsquarter (Lambsquarter; 2 lb/A): 88%
selectivity for controlling the grass species (grass species [6]): selective for controlling the grass species
% Control of Plant Growth, Johnsongrass (Johnsongrass; 1 lb/A): 60%
% Control of Plant Growth, Johnsongrass (Johnsongrass; 2 lb/A): 80%
% Control of Plant Growth, Johnsongrass (Johnsongrass; 4 lb/A): 80%
injury to soybean stand (Soybeans [7]; 1-2 lb/A, heavy soil): noninjurious
broadleaf weed control in a light, sandy soil (broadleaf species [8]; 1-2 lb/A): good broadleaf weed control
herbicidal activity against two of the broadleaf species (broadleaf species [8]; 2 lb/A): significant herbicidal activity
% Weed Control, Prickly Sida (Prickly Sida; 0.25 lb/A): 0%
% Weed Control, Prickly Sida (Prickly Sida; 0.5 lb/A): 0%
% Weed Control, Prickly Sida (Prickly Sida; 1 lb/A): 12%
% Weed Control, Prickly Sida (Prickly Sida; 2 lb/A): 40%
% Weed Control, Redroot Pigweed (Redroot Pigweed; 0.25 lb/A): 0%
% Weed Control, Redroot Pigweed (Redroot Pigweed; 0.5 lb/A): 33%
% Weed Control, Redroot Pigweed (Redroot Pigweed; 1 lb/A): 55%
% Weed Control, Redroot Pigweed (Redroot Pigweed; 2 lb/A): 90%
% Weed Control, Giant Foxtail (Giant Foxtail; 0.25 lb/A): 0%
% Weed Control, Giant Foxtail (Giant Foxtail; 0.5 lb/A): 27%
% Weed Control, Giant Foxtail (Giant Foxtail; 1 lb/A): 65%
% Weed Control, Giant Foxtail (Giant Foxtail; 2 lb/A): 82%
% Weed Control, Goosegrass (Goosegrass; 0.25 lb/A): 63%
% Weed Control, Goosegrass (Goosegrass; 0.5 lb/A): 88%
% Weed Control, Goosegrass (Goosegrass; 1 lb/A): 95%
% Weed Control, Goosegrass (Goosegrass; 2 lb/A): 99%
control of grassy-type weeds (grassy-type weeds): good control

Structure (SMILES): Cc1cccc(N(CC#N)C(=O)CCl)c1 [Example 8, 2-chloro-N-cyanomethyl-3'-methylacetanilide]
Minimum Dosage Providing at Least 50% Preemergence Control of Grass Species (grass species [3]): 0.50 lb/A

Structure (SMILES): N#CCN(C(=O)CCl)c1ccccc1Cl [Example 9, 2,2'-dichloro-N-(cyanomethyl)acetanilide]
Minimum Dosage Providing at Least 50% Preemergence Control of Grass Species (grass species [3]): 0.50 lb/A

Structure (SMILES): Cc1cccc(C)c1N(CC#N)C(=O)CCl [Example 10, 2-chloro-N-cyanomethyl-2',6'-dimethylacetanilide]
Minimum Dosage Providing at Least 50% Preemergence Control of Grass Species (grass species [3]): 0.25 lb/A

Structure (SMILES): CC(C)c1ccccc1N(CC#N)C(=O)CCl [Example 11, 2-chloro-N-cyanomethyl-2'-isopropylacetanilide]
Minimum Dosage Providing at Least 50% Preemergence Control of Grass Species (grass species [3]): 1.00 lb/A

Structure (SMILES): CC(C)c1cccc(C(C)C)c1N(CC#N)C(=O)CCl [Example 12, 2-chloro-N-cyanomethyl-2',6'-diisopropylacetanilide]
Minimum Dosage Providing at Least 50% Preemergence Control of Grass Species (grass species [3]): 0.50 lb/A

Structure (SMILES): COc1ccccc1N(CC#N)C(=O)CCl [Example 13, 2-chloro-N-cyanomethyl-2'-methoxyacetanilide]
Minimum Dosage Providing at Least 50% Preemergence Control of Grass Species (grass species [3]): 0.50 lb/A

Structure (SMILES): CCc1ccccc1N(CC#N)C(=O)CCl [Example 14, 2-chloro-N-cyanomethyl-2'-ethylacetanilide]
Minimum Dosage Providing at Least 50% Preemergence Control of Grass Species (grass species [3]): 0.50 lb/A

Structure (SMILES): N#CCN(C(=O)CCl)c1ccccc1Br [Example 15, 2'-bromo-2-chloro-N-(cyanomethyl)acetanilide]
Minimum Dosage Providing at Least 50% Preemergence Control of Grass Species (grass species [3]): 1.00 lb/A
